# Source: US20180371021A1, “PEPTIDOMIMETIC MACROCYCLES AND USES THEREOF” (Aileron Therapeutics, Inc., priority 2017, published 2018)
# “And” between values parts separate entries of the source, which are not always exact repeats. Equal values may be shown once. “Also recorded” adds a separate entry of the source.
# What was measured:
# [1] = Phase 1 dose-escalation trial of AP1: safety and tolerability; assay type: in vivo, human
# Excerpt: 71 patients were enrolled in the dose-escalation trial. The trial used a “3+3” dose-escalation design.
# Starting with dose level 4, patients who had cancers associated with HPV were excluded from enrollment because HPV is known to destroy WT p53.
# FIG. 2 illustrates the dosing regiments (DRs) used in the “3+3” dose escalation trial.
# Eight patients experienced dose reductions, including two patients who had been on study treatment for over 1 year, and another patient who had been on study treatment for 11 months. […] Both events were Grade 3 hypotension and were at the 3.1 mg/kg and the 4.4 mg/kg once-weekly dosing levels. […] Five patients discontinued treatment with AP1 due to these events.
# [2] = Phase 1 dose-escalation trial of AP1: pharmacokinetic profile; assay type: in vivo, human; details: patients, I.V. infusion
# Excerpt: Data were collected at different time points after the start of infusion (SOI) and the end of infusion (EOI).
# MIC-1 = experiment: Phase 1 dose-escalation trial of AP1: plasma MIC-1 biomarker; assay type: in vivo, human; details: plasma MIC-1 after end of AP1 infusion
# Experimental: Depending on the sample type, the PD biomarkers included measures of MDMX, MDM2, p21, p53, apoptosis, macrophage inhibitory cytokine 1, or MIC-1.
# In the Phase 1 dose-escalation study, plasma MIC-1 levels were measured at several time points after initial infusion.
# [3] = system: advanced solid tumors or lymphomas expressing WT p53; experiment: Phase 1 dose-escalation trial of AP1: anti-tumor activity (RECIST / IWG); assay type: in vivo, human
# Experimental: Anti-tumor activity was measured using Response Evaluation Criteria in Solid Tumors (RECIST) criteria for patients with solid tumors, and 2015 International Working Group (IWG) criteria for patients with lymphomas. The RECIST and IWG criteria enabled the objective evaluation of whether a tumor had progressed, stabilized, or decreased in size. Anti-tumor effects were also determined through physical examinations or clinically validated blood or serum tumor markers.
# Anti-tumor activity was measured using RECIST criteria for patients with solid tumors and the IWG criteria for patients with lymphomas to objectively evaluate whether a tumor progressed, stabilized, or shrunk.
# The percent change in tumor volume for each evaluable patient (i.e., having measurable disease by CT or PET-CT scan) is plotted from the highest to lowest value, or low to high response, and each bar of the histogram is colored by the best overall response measured for that patient per RECIST or IWG criteria.
# [4] = system: peripheral T-Cell Lymphoma (PTCL); experiment: Phase 2a clinical trial with AP1 in peripheral T-cell lymphoma; assay type: in vivo, human
# Experimental: Based on the results of the dose-escalation study and the complete response observed in a patient with PTCL, a Phase 2a clinical trial was conducted in patients with PTCL.
# [5] = system: human CD45 leukemic cells; experiment: Survival in an in vivo xenotransplantation model; set-up: species or system mice; details: for Long term survival, mice still alive: 130 days post start of treatment
# Excerpt: The median survival for group 1 and group 2 was 34 days and 83 days, respectively (p<0.0001).
# MCF-7 cells = experiment: MCF-7 cell proliferation (WST-1 / CyQUANT), AP1 and CDK4/CDK6 inhibitors; assay type: cell-based, human; details: sequential treatment, 24 h pre-treatment
# Experimental: The WST-1 variant of the MTT assay was used to measure cell viability. WST-1 is a cell-impermeable, sulfonated tetrazolium salt that can be used to examine cell viability without killing the cells. […] All media were supplemented with 10% (v/v) fetal calf serum, 100 units of penicillin, and 100 μg/mL of streptomycin at 37° C. and 5% CO2. Prior to dosing, MCF-7 cells were switched to serum-free medium and grown at 37° C. overnight. One day prior to assaying, the cells were trypsinized, counted, and seeded at pre-determined densities in 96-well plates as follows: MCF-7, 5000 cells/well/200 μL; MOLT-3, 30,000 cells/well/200 μL.
# The concentration of ribociclib was kept constant.
# The concentration of abemaciclib was kept constant.
# Various MCF-7 cell numbers were plated and evaluated 3-7 days after plating to determine the optimal number of cells to be plated and to determine the treatment duration. […] MCF-7 cells were evaluated for viability using the WST-1 assay or the CyQUANT method 3-7 days or 120 h after beginning treatment.
# The cells were evaluated for viability using the CyQUANT method after beginning the simultaneous treatments.
# The cells were evaluated for viability using a WST-1 assay or MTT assay 3-7 days after beginning the treatments.
# The data are expressed as log(CI).
# [6] = system: SJSA-1 osteosarcoma xenograft; experiment: SJSA-1 osteosarcoma xenograft model, AP1 and palbociclib; assay type: in vivo, mice; details: AP1 20 mg/kg qwkx4, palbociclib 75 mg/kg qdx22
# Experimental: (§1) The group was not euthanized, and the mice were allowed to recover. […] Animals were monitored individually. […] Responders were followed for a longer period of time. When the endpoint was reached, the animals were euthanized. […] An aqueous phosphate-buffered saline solution or sodium lactate (50 mM, pH 4.0) solution was used as the vehicle.
# [7] = system: MCF-7.1 human breast carcinoma xenograft; experiment: MCF-7.1 human breast carcinoma xenograft model, AP1 and palbociclib; assay type: in vivo, mice; details: AP1 20 mg/kg qwkx4, palbociclib 75 mg/kg qdx22
# Experimental: as §1, with “Female athymic nude mice were provided with drinking water with 10 μg/mL with 17 beta estradiol supplementation 3 days prior to cell implantation and for the duration of the study. […] The mice were between 8-12 weeks of age at the beginning of the study. […] The” for “The”
# A549 xenograft = A549 xenograft model, AP1 and palbociclib; assay type: in vivo, mice
# Excerpt: The arrows indicate spontaneous tumor shrinkage in vehicle controls. The arrows with * indicate poor growth of tumors late in the study.
# [8] = system: Acute Myeloid Leukemia (AML) or Myelodysplastic Syndrome (MDS), expressing WT p53; experiment: Clinical study of AP1 alone or with cytarabine in AML or MDS; assay type: in vivo, human; details: evaluable patients with bone marrow biopsies before and after dosing
# [9] = d22, calculated using vehicle median volumes on d0 and d22
# [10] = three consecutive measurements > 150% of d1 volume
smiles,measurement,setting,value
CC(=O)N[C@@H](CC(C)C)C(=O)N[C@H](C(=O)N[C@@H](Cc1ccccc1)C(=O)N[C@]1(C)CCCCCCC=CCCC[C@@](C)(C(=O)N[C@@H](C)C(=O)N[C@@H](C)C(=O)N[C@@H](C)C(=O)N[C@@H](C)C(=O)N[C@@H](C)C(=O)N[C@H](C)C(N)=O)NC(=O)[C@H](CC(C)C)NC(=O)[C@H](CCC(N)=O)NC(=O)[C@H](C)NC(=O)[C@H](Cc2c[nH]c3ccccc23)NC(=O)[C@H](Cc2ccc(O)cc2)NC(=O)[C@H](CCC(=O)O)NC1=O)[C@@H](C)O [AP1],dose limiting toxicity (DLT),[1]; 3.1 mg/kg once weekly dosing,One dose limiting toxicity (DLT) of Grade 3 fatigue
same,dose limiting toxicity (DLT),[1]; […] once weekly,"four DLTs (Grade 3 elevated alkaline phosphatase, Grade 3 hypotension, Grade 3 anemia, Grade 4 neutropenia)"
same,patients with transient decreases in lymphocytes post-dosing and primarily Grade 1 and 2 abnormalities,[1]; full recovery within a few days,approximately 50%
same,MTD,"[1]; human, in vivo, iv, dosed once a week by I.V. administration, patients",3.1 mg/kg
same,tolerability as considered by the investigators,"[1]; patients, dose escalation trial",generally well tolerated
same,most frequently reported drug-related events,[1]; reported by ≥10% of the patients,"nausea, fatigue, vomiting, decreased appetite, anemia, headache, and constipation"
same,maximum drug serum concentrations observed (Cmax),[2]; all dose levels,dose-related increase
same,half-lives,[2]; higher dose levels,five and seven
same,doses achieving a maximal 24 hr MIC-1 increase above baseline,MIC-1,≥ 2.1 mg/kg
same,responses with stabilization of tumor size (SDs),[3]; 57 evaluable patients,21
same,stable diseased patients that exhibited tumor shrinkage,[3]; 57 evaluable patients,7
same,patient scans of the two CR patients,"[3]; PTCL patient after six cycles, MCC patient after further treatment",the lymph node returned to its normal size; also recorded: showed no trace of cancer in the patient
same,max time a patient received AP1,[3]; one patient,613 days
same,response of the first patient enrolled in the Phase 2 study in PTCL,[4]; after 2 cycles of treatment,partial response
same,Best overall response,"[4]; seven PTCL patients on AP1 therapy, one line per patient (patient 1 from dose escalation)",ODP
same,Days on treatment,"[4]; seven PTCL patients on AP1 therapy, one line per patient (patient 1 from dose escalation), Dose escalation study",487 days
same,Days on treatment,"[4]; seven PTCL patients on AP1 therapy, one line per patient (patient 1 from dose escalation), Phase 2a study",32 days and 1 days and 122 days and 134 days and 66 days and 53 days
same,"Long term survival, mice still alive",[5]; group 2,22%
same,"Long term survival, mice still alive",[5]; group 3,60%
same,median survival,"[5]; group 2 (group 1: 34 days), p<0.0001",83 days
same,overall survival,[5]; vs vehicle,doubled the overall survival
same,MCF-7 cell growth,MCF-7 cells,suppressed MCF-7 cell growth with or without treatment with palbociclib
same,Median tumor volume (mm^3) D1,"[6]; D1 (start of dosing), SJSA-1 xenograft, nude mice",117 mm^3
same,Median tumor volume (mm^3) D22,"[6]; D22, SJSA-1 xenograft, nude mice",2150 mm^3
same,Median time to tumor volume > 1000 mm^3,[6]; SJSA-1 xenograft,16 days
same,Median time to tumor volume > 2000 mm^3,[6]; SJSA-1 xenograft,21 days
same,% TGI (±SEM) on d22 (end of dosing),[6]; [9],17 (6) %
same,Animals with disease progression,[6]; [10],10/10
same,Median tumor volume (mm^3) D1,"[7]; D1 (start of dosing), MCF-7.1 xenograft, nude mice",126 mm^3
same,Median tumor volume (mm^3) D22,"[7]; D22, MCF-7.1 xenograft, nude mice",473 mm^3
same,Median time to tumor volume > 500 mm^3,[7]; MCF-7.1 xenograft,22 days
same,Median time to tumor volume > 1000 mm^3,[7]; MCF-7.1 xenograft,35 days
same,% TGI (±SEM) on d22 (end of dosing),[7]; [9],30 (9) %
same,animals have reached endpoint,"[7]; endpoint tumor volume > 1000 mm^3, MCF-7.1 xenograft",10/10 animals
same,Animals with disease progression,[7]; [10],10/10
same,Median time to tumor volume > 500 mm^3,"A549 xenograft; A549 xenograft, AP1 20 mg/kg qwkx4",25 days
same,Median tumor volume (mm^3) D1,"A549 xenograft; D1 (start of dosing), A549 xenograft, nude mice, AP1 20 mg/kg qwkx4, palbociclib 75 mg/kg qdx22",126 mm^3
same,Median tumor volume (mm^3) D22,"A549 xenograft; D22, A549 xenograft, nude mice, AP1 20 mg/kg qwkx4, palbociclib 75 mg/kg qdx22",405 mm^3
same,% TGI (±SEM) on d22 (end of dosing),"A549 xenograft; d22, calculated using vehicle median volumes on d0 and d22, AP1 20 mg/kg qwkx4, palbociclib 75 mg/kg qdx22",42 (7) %
same,Animals with disease progression,"A549 xenograft; three consecutive measurements > 150% of d1 volume, AP1 20 mg/kg qwkx4, palbociclib 75 mg/kg qdx22",10/10
same,animals have reached endpoint,"A549 xenograft; tumor volume > 500 mm^3, A549 xenograft, AP1 20 mg/kg qwkx4, palbociclib 75 mg/kg qdx22",8/10 animals
same,patients who demonstrated stabilization of their disease,[8],3
